From ChEMBL document CHEMBL1201862, “PubChem BioAssay data set” (2004)
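Cultured in 96-well plates, cells were exposed to test compound for 48 hours across five concentrations. Abbreviation: GI50, concentration required for 50% inhibition of growth.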 Calls of active or inactive are those of the source. No stated cut-off is given here; in the data, active = GI50 up to about 1.1 µM and inactive = higher.

Tests used:
Test in all cases: inhibition of tumour cell growth, NCI panel, 48 h
[1] = test system: SN12C
[2] = test system: A549
[3] = test system: HCC 2998
[4] = test system: OVCAR-3
[5] = test system: HOP-62
[6] = test system: SNB-75
[7] = test system: RPMI-8226
[8] = test system: SK-MEL-2
[9] = test system: NCI-H226
[10] = test system: SW-620
[11] = test system: UACC-62
[12] = test system: EKVX
[13] = test system: U-251
[14] = test system: SF-295
[15] = test system: LOX IMVI
[16] = test system: NCI-H460
[17] = test system: M14
[18] = test system: OVCAR-8
[19] = test system: Malme-3M
[20] = test system: NCI-H522

Measured: GI50

COc1cccc(-c2[nH]c3cc4c(cc3c(=O)c2C(=O)O)OCO4)c1
inactive: [1] 40.6 µM | [2] 44.7 µM | [3] 32.8 µM | [4] 44.4 µM | [5] 62.8 µM | [6] 84.1 µM | [7] 41.2 µM | [8] 78.7 µM | [9] 43.5 µM | [10] 29 µM | [11] 33.6 µM | [12] 79.1 µM | [13] 37.2 µM | [14] 23.8 µM | [15] 42.3 µM | [16] 43.7 µM | [17] 26 µM | [18] 23.2 µM

Cc1cc(O)nc(NN2C(Cl)C(=O)C2c2cccc([N+](=O)[O-])c2)n1 (configuration not stated)
inactive: [1] 18.1 µM | [2] 76 µM | [3] 18.5 µM | [4] 14.8 µM | [5] 31.4 µM | [6] 28 µM | [7] 13.7 µM | [8] 19 µM | [9] 12.3 µM | [10] 35.1 µM | [11] 19.4 µM | [12] 63.4 µM | [13] 20 µM | [15] 12.3 µM | [16] 26.3 µM | [17] 17.3 µM | [18] 34.8 µM

Cc1ccc(S(=O)(=O)NN=C2CCCCCCCCCCC2)cc1
inactive: [1] > 100 µM | [2] > 100 µM | [3] > 100 µM | [4] > 100 µM | [5] > 100 µM | [7] > 100 µM | [8] > 100 µM | [9] 38.4 µM | [10] > 100 µM | [11] > 100 µM | [12] > 100 µM | [19] > 100 µM | [13] > 100 µM | [20] > 100 µM | [14] > 100 µM | [15] > 100 µM | [16] > 100 µM | [17] > 100 µM | [18] > 100 µM

CC(C)(/N=N/C(C)(C)C(=O)NCCO)C(=O)NCCO
inactive: [1] > 100 µM | [2] > 100 µM | [3] > 100 µM | [4] > 100 µM | [5] > 100 µM | [7] > 100 µM | [8] > 100 µM | [9] > 100 µM | [10] > 100 µM | [11] > 100 µM | [12] > 100 µM | [19] > 100 µM | [13] > 100 µM | [20] 39.7 µM | [14] > 100 µM | [15] > 100 µM | [16] > 100 µM | [17] > 100 µM | [18] > 100 µM

Cc1c2c(n(CCN(C)C)c1C)NN=C(C#N)S2(=O)=O
inactive: [1] > 100 µM | [2] > 100 µM | [3] > 100 µM | [4] > 100 µM | [5] > 100 µM | [6] > 100 µM | [7] > 100 µM | [8] > 100 µM | [9] > 100 µM | [10] > 100 µM | [11] > 100 µM | [12] > 100 µM | [19] > 100 µM | [13] > 100 µM | [15] > 100 µM | [16] > 100 µM | [17] > 100 µM | [18] > 100 µM

O=C(CC(=O)Nc1ccc(C(=O)O)cc1)Nc1ccc(C(=O)O)cc1
inactive: [1] > 100 µM | [2] > 100 µM | [3] > 100 µM | [4] > 100 µM | [7] > 100 µM | [8] 17.3 µM | [9] > 100 µM | [10] > 100 µM | [11] 37.6 µM | [12] > 100 µM | [19] > 100 µM | [13] > 100 µM | [20] > 100 µM | [14] > 100 µM | [15] > 100 µM | [16] > 100 µM | [17] > 100 µM | [18] > 100 µM

O=C1/C(=C/c2ccccc2)CCC/C1=C\c1ccccc1 [2,6-DIBENZYLIDENECYCLOHEXANONE]
inactive: [1] 16.1 µM | [2] 19.6 µM | [3] 12.2 µM | [4] 10.4 µM | [5] 21.7 µM | [6] 20.2 µM | [7] 1.6 µM | [8] 16.7 µM | [9] 18.7 µM | [10] 2.6 µM | [11] 13.2 µM | [12] 18.3 µM | [19] 16.5 µM | [13] 5.82 µM | [14] 10.4 µM | [15] 2.21 µM | [16] 14.9 µM | [17] 6.44 µM | [18] 8.26 µM

CCOC(=O)c1nc2ccccc2n(CC)c1=O
inactive: [1] > 100 µM | [2] > 100 µM | [3] > 100 µM | [4] > 100 µM | [5] > 100 µM | [7] > 100 µM | [8] > 100 µM | [9] > 100 µM | [10] > 100 µM | [11] > 100 µM | [12] > 100 µM | [19] > 100 µM | [13] > 100 µM | [20] > 100 µM | [14] > 100 µM | [15] > 100 µM | [16] 81.7 µM | [17] > 100 µM | [18] > 100 µM
